According to US12577231B2, “Androgen receptor PROTACS” (GlaxoSmithKline Intellectual Property Development Limited, priority 2023, dated 2026):
Numbering of substitutions follows the chain as printed.

How the values were obtained:
Androgen receptor T878A = molecular target: T1, Androgen receptor T878A (Homo sapiens, UniProt P10275, T878A); assay: Degradation of overexpressed Androgen Receptor in A549 cells (HiBiT), T878A; format: cell-based; details: A549 cells overexpressing AR T878A, cycloheximide, 24 hours
T1 construct: expressed in transfected cells; host or cells: A549, transduced, puromycin selected
T1 sequence (P10275 1-920 T878A): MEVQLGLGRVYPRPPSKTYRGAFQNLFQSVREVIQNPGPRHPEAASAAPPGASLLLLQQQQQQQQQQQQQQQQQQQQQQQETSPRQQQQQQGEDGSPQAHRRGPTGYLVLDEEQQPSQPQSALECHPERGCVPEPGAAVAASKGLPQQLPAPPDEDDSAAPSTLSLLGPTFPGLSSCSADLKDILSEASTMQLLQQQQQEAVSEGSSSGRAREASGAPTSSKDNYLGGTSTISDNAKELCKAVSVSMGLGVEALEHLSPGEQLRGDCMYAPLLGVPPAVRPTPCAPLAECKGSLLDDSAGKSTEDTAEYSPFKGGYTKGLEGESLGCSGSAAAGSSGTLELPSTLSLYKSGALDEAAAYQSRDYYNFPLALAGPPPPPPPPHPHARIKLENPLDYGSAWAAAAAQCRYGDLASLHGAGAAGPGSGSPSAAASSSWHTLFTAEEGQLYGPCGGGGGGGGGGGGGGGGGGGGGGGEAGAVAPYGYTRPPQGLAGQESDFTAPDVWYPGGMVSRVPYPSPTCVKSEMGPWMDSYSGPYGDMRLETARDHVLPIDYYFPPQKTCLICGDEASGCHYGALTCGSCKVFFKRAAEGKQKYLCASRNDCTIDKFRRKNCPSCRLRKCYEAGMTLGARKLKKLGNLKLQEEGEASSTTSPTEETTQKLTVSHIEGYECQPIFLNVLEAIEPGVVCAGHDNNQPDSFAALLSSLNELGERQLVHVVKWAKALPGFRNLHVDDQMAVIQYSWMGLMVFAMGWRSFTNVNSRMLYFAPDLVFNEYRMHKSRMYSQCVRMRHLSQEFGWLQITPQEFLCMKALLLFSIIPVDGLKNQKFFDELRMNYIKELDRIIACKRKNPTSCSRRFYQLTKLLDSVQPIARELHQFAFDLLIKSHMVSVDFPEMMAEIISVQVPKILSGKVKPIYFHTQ
Procedure: (§1) A549 cells were transduced to express wild type androgen receptor and Androgen receptor containing the following mutations (L702H, H875Y W742C W742L F877L, T878A and T878A/H875Y) with HiBiT tags. Transduced cells following puromycin selection were maintained in a humidified incubator (at 37° C. and 5% CO2 in the DMEM medium supplemented with 1% (v/v) Pen/Strep, 1% (v/v) Glutamax and 10% (v/v) FBS. A549 cells expressing each AR construct were detached from plate and counted. Cell suspensions at density 0.2 million per mL were prepared. Cell suspension was supplemented with 100 μg/mL of cycloheximide to block protein synthesis. Cells were preincubated with cycloheximide for 1 hr before seeding. Cells were seeded onto 384-well plate at density of 5,000 in 25 μL per well. A two fold serial dilution of test compounds, starting from 1 μM (row A) in 2-fold serial dilution series across the column using Tecan D300e dispenser. […]
(§2) Nano-Glo HiBiT Lytic reagent was prepared by adding LgBiT protein and Nano-Glo® substrate to lytic buffer pre-equilibrated at room temperature following manufacturer protocol (https://www.promega.co.uk/resources/protocols/technical-manuals/101/nanoglo-luciferase-assay-system-protocol). […] The plates were then centrifuged (100×G, 1 min) and incubated on shaker for 10 mins before taking readings on Pherastar Luminescence microplate reader. […]

Androgen receptor W742L = molecular target: T2, Androgen receptor W742L (Homo sapiens, UniProt P10275, W742L); assay: Degradation of overexpressed Androgen Receptor in A549 cells (HiBiT), W742L; format: cell-based; details: A549 cells overexpressing AR W742L, cycloheximide, 24 hours
T2 construct: expressed in transfected cells; host or cells: A549, transduced, puromycin selected
T2 sequence (P10275 1-920 W742L): T1 sequence (P10275 1-920 T878A) with W742L, A878T
Procedure: as §1, §2

SMILES: COc1cc(O[C@H]2C(C)(C)[C@H](NC(=O)c3ccc(N4CCC(CN5CCC(n6ncc7c(N8CCC(=O)NC8=O)nccc76)CC5)CC4)c(F)c3)C2(C)C)ccc1C#N [Example 20, N-((1r,3r)-3-(4-Cyano-3-methoxyphenoxy)-2,2,4,4-tetramethylcyclobutyl)-4-(4-((4-(4-(2,4-dioxotetrahydropyrimidin-1(2H)-yl)-1H-pyrazolo[4,3-c]pyridin-1-yl)piperidin-1-yl)methyl)piperidin-1-yl)-3-fluorobenzamide]
- Summary pXC50 (Androgen receptor T878A): 8.81
- Summary pXC50 (Androgen receptor W742L): 8.93
